According to patent publication US11136296B2, “Substituted N-arylethyl-2-arylquinoline-4-carboxamides and use thereof” (Bayer Aktiengesellschaft, priority 2017, dated 2021):
pIC50: −log10 of the molar value.

Biological target: FP receptor (Homo sapiens (Human), UniProt P43088)
Assay: In vitro test of inhibition of human FP receptor activity (PGF2α-induced calcium flux in FP-expressing CHEM1 cells)
Format: cell-based
Settings: PGF2α-induced (2 nM) calcium flux in FP-expressing CHEM1 cells; some as mean values from multiple determinations
Source text: Table 1 below lists the IC50 values from this assay for individual working examples of the invention (some as mean values from multiple independent individual determinations): […]

Chain of FP receptor (P43088 whole entry): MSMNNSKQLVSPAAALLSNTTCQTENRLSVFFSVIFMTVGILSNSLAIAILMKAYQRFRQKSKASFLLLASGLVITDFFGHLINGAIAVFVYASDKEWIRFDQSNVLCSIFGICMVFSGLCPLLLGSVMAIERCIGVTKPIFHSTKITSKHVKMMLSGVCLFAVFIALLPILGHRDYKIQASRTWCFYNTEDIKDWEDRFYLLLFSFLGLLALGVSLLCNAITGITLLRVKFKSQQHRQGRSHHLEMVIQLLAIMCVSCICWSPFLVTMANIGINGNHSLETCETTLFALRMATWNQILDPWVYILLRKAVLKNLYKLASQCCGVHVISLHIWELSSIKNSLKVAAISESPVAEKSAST

pIC50	SMILES
7.59	COc1ccccc1C(CCC(=O)O)CNC(=O)c1c(C)c(-c2ccccc2)nc2ccc(Br)cc12 (single isomer, unassigned; (-)) [Example 167, (−)-5-{[(6-Bromo-3-methyl-2-phenylquinolin-4-yl)carbonyl]amino}-4-(2-methoxyphenyl)pentanoic Acid]
7.92	Cc1c(-c2ccccc2)nc2ccc(Br)cc2c1C(=O)NCC(CCC(=O)O)c1ccccc1F (single isomer, unassigned; (-)) [Example 176, (−)-5-{[(6-Bromo-3-methyl-2-phenylquinolin-4-yl)carbonyl]amino}-4-(2-fluorophenyl)pentanoic Acid]
8.39	Cc1c(-c2ccccc2)nc2ccc(Br)cc2c1C(=O)NCC(CCC(=O)O)c1ccccc1OC(F)F (single isomer, unassigned; (-)) [Example 179, (−)-5-{[(6-Bromo-3-methyl-2-phenylquinolin-4-yl)carbonyl]amino}-4-[2-(difluoromethoxy)phenyl]pentanoic Acid]
8.14	Cc1c(-c2ccccc2)nc2ccc(Br)cc2c1C(=O)NCC(CCC(=O)O)c1c(F)cccc1F (single isomer, unassigned; (-)) [Example 182, (−)-5-{[(6-Bromo-3-methyl-2-phenylquinolin-4-yl)carbonyl]amino}-4-(2,6-difluorophenyl)pentanoic Acid]
8.41	Cc1c(-c2ccccc2)nc2ccc(Br)cc2c1C(=O)NCC(CCC(=O)O)c1cccc(F)c1Cl (single isomer, unassigned; (-)) [Example 185, (−)-5-{[(6-Bromo-3-methyl-2-phenylquinolin-4-yl)carbonyl]amino}-4-(2-chloro-3-fluorophenyl)pentanoic Acid]
8.43	Cc1c(-c2ccccc2)nc2ccc(Br)cc2c1C(=O)NCC(CCC(=O)O)c1ccccc1C(F)(F)F (single isomer, unassigned; (-)) [Example 204, (−)-5-{[(6-Bromo-3-methyl-2-phenylquinolin-4-yl)carbonyl]amino}-4-[2-(trifluoromethyl)phenyl]pentanoic Acid]
8.00	Cc1ccc(F)cc1C(CCC(=O)O)CNC(=O)c1c(C)c(-c2ccccc2)nc2ccc(Br)cc12 (single isomer, unassigned; (-)) [Example 207, (−)-5-{[(6-Bromo-3-methyl-2-phenylquinolin-4-yl)carbonyl]amino}-4-(5-fluoro-2-methylphenyl)pentanoic Acid]
8.77	Cc1c(-c2ccccc2)nc2ccc(Br)cc2c1C(=O)NCC(CCC(=O)O)c1ccccc1OC(F)(F)F (single isomer, unassigned; (-)) [Example 211, (−)-5-{[(6-Bromo-3-methyl-2-phenylquinolin-4-yl)carbonyl]amino}-4-[2-(trifluoromethoxy)phenyl]pentanoic Acid]
7.85	Cc1c(-c2ccccc2)nc2ccc(Br)cc2c1C(=O)NCC(CCC(=O)O)c1ccccc1F (centres unmarked) [compound 252]

Further lines, the compound ahead of its results:

SMILES	pIC50
Cc1c(-c2ccccc2)nc2ccc(Br)cc2c1C(=O)NCC(C)(CCC(=O)O)c1cc(F)ccc1Cl (single isomer, unassigned; (-)) [Example 170, (−)-5-{[(6-Bromo-3-methyl-2-phenylquinolin-4-yl)carbonyl]amino}-4-(2-chloro-5-fluorophenyl)-4-methylpentanoic Acid]	6.96
Cc1c(-c2ccccc2)nc2ccc(Br)cc2c1C(=O)NCC(c1ccccc1Cl)N(C)CC(=O)O (single isomer, unassigned; (-)) [Example 188, (−)-N-[2-{[(6-Bromo-3-methyl-2-phenylquinolin-4-yl)carbonyl]amino}-1-(2-chlorophenyl)ethyl]-N-methylglycine]	7.27
Cc1c(-c2ccccc2)nc2ccc(Br)cc2c1C(=O)NCC(OCC(=O)O)c1ccccc1Cl (single isomer, unassigned; (-)) [Example 193, (−)-[2-{[(6-Bromo-3-methyl-2-phenylquinolin-4-yl)carbonyl]amino}-1-(2-chlorophenyl)ethoxy]acetic Acid]	6.82
Cc1c(-c2ccccc2)nc2ccc(Br)cc2c1C(=O)NCC(SCC(=O)O)c1ccccc1Cl (single isomer, unassigned; (-)) [Example 196, (−)-{[2-{[(6-Bromo-3-methyl-2-phenylquinolin-4-yl)carbonyl]amino}-1-(2-chlorophenyl)ethyl]sulfanyl}acetic Acid]	7.92
Cc1c(-c2ccccc2)nc2ccc(Br)cc2c1C(=O)NCC(CCC(=O)O)c1c(Cl)ccc(F)c1F (single isomer, unassigned; (-)) [Example 201, (−)-5-{[(6-Bromo-3-methyl-2-phenylquinolin-4-yl)carbonyl]amino}-4-(6-chloro-2,3-difluorophenyl)pentanoic Acid]	8.92
O=C(O)CCC(CNC(=O)c1c(Cl)c(-c2ccccc2)nc2ccc(Br)cc12)c1ccccc1Cl (single isomer, unassigned; (-)) [Example 213, (−)-5-{[(6-Bromo-3-chloro-2-phenylquinolin-4-yl)carbonyl]amino}-4-(2-chlorophenyl)pentanoic Acid]	8.55
O=C(O)CCC(CNC(=O)c1c(Cl)c(-c2ccccc2)nc2ccc(Br)cc12)c1ccccc1C(F)(F)F (single isomer, unassigned; (-)) [Example 216, (−)-5-{[(6-Bromo-3-chloro-2-phenylquinolin-4-yl)carbonyl]amino}-4-[2-(trifluoromethyl)phenyl]pentanoic Acid]	8.30
C#Cc1ccc2nc(-c3ccccc3)c(C)c(C(=O)NCC(CCC(=O)O)c3ccccc3Cl)c2c1 (single isomer, unassigned; (-)) [Example 219, (−)-4-(2-Chlorophenyl)-5-{[(6-ethynyl-3-methyl-2-phenylquinolin-4-yl)carbonyl]amino}pentanoic Acid]	8.00
O=C(O)CCC(CNC(=O)c1c(Cl)c(-c2ccccc2)nc2ccc(Br)cc12)c1c(F)ccc(F)c1Cl (single isomer, unassigned; (-)) [Example 222, (−)-5-{[(6-Bromo-3-chloro-2-phenylquinolin-4-yl)carbonyl]amino}-4-(2-chloro-3,6-difluorophenyl)pentanoic Acid]	9.02
Cc1c(-c2ccccc2)nc2ccc(Br)cc2c1C(=O)NCC(CCC(=O)O)c1c(F)cccc1C(F)(F)F (single isomer, unassigned; (-)) [Example 227, (−)-5-{[(6-Bromo-3-methyl-2-phenylquinolin-4-yl)carbonyl]amino}-4-[2-fluoro-6-(trifluoromethyl)phenyl]pentanoic Acid]	8.80
Cc1c(-c2ccccc2)nc2ccc(Br)cc2c1C(=O)NCC(CCC(=O)O)c1c(F)c(F)cc(F)c1F (single isomer, unassigned; (-)) [Example 229, (−)-5-{[(6-Bromo-3-methyl-2-phenylquinolin-4-yl)carbonyl]amino}-4-(2,3,5,6-tetrafluorophenyl)pentanoic Acid]	8.57
Cc1c(-c2ccccc2)nc2ccc(Br)cc2c1C(=O)NCC(CCC(=O)O)c1c(Cl)ccc(Cl)c1Cl (single isomer, unassigned; (-)) [Example 236, (−)-5-{[(6-Bromo-3-methyl-2-phenylquinolin-4-yl)carbonyl]amino}-4-(2,3,6-trichlorophenyl)pentanoic Acid]	8.70
Cc1c(-c2ccccc2)nc2ccc(Br)cc2c1C(=O)NCC(C)(CCCC(=O)O)c1ccccc1Cl (single isomer, unassigned; (-)) [Example 241, (−)-6-{[(6-Bromo-3-methyl-2-phenylquinolin-4-yl)carbonyl]amino}-5-(2-chlorophenyl)-5-methylhexanoic Acid]	7.17
Cc1c(-c2ccccc2)nc2ccc(Br)cc2c1C(=O)NCC(C)(CCCC(=O)O)c1ccccc1 (single isomer, unassigned; (-)) [Example 244, (−)-6-{[(6-Bromo-3-methyl-2-phenylquinolin-4-yl)carbonyl]amino}-5-methyl-5-phenylhexanoic Acid]	7.70
COc1ccccc1C(CNC(=O)c1c(C)c(-c2ccccc2)nc2ccc(Br)cc12)N1CCC(C(=O)O)C1 (centres unmarked) [Example 246, 1-[2-{[(6-Bromo-3-methyl-2-phenylquinolin-4-yl)carbonyl]amino}-1-(2-methoxyphenyl)ethyl]pyrrolidine-3-carboxylic Acid]	7.03
COc1ccccc1[C@H](CNC(=O)c1c(C)c(-c2ccccc2)nc2ccc(Br)cc12)N1CCC(C(=O)O)C1 (some centres unmarked) [compound 247]	8.14
COc1ccccc1[C@@H](CNC(=O)c1c(C)c(-c2ccccc2)nc2ccc(Br)cc12)N1CCC(C(=O)O)C1 (some centres unmarked) [compound 248]	7.89
